PubChem BioAssay AID330 (DTP/NCI, 2004)
Where “and” joins values, the source holds several entries; their conditions need not be identical. Identical values can stand only once. Toxic doses and inconclusive results are not listed. Peptide text beside a SMILES is read from it. * marks the point of attachment. Cbz = O=C(OCc1ccccc1)*; Bn = c1ccc(C*)cc1

Test system: P388 leukemia ip, CD2F1 mice, survival T/C
Assay: NCI In Vivo Anticancer Drug Screen. Data for tumor model P388 Leukemia (intraperitoneal) in CD2F1 (CDF1) mice
Details: endpoint: median survival time, higher = longer survival
Procedure, shortened: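 Mice carrying the transplanted tumor received test compound or vehicle. Survival was recorded in each group, and the value is the treated-group measurement divided by that of the vehicle-treated control group.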

[1] = dose: 60.0 mg/kg/injection, schedule: Q01DX005 (ip), vehicle: saline with Tween-80
[2] = dose: 120.0 mg/kg/injection, schedule: Q01DX005 (ip), vehicle: saline with Tween-80
[3] = dose: 240.0 mg/kg/injection, schedule: Q01DX005 (ip), vehicle: saline with Tween-80
[4] = dose: 60.0 mg/kg/injection, schedule: Q01DX005 (ip), vehicle: Klucel (hydroxypropylcellulose) (HPC)
[5] = dose: 120.0 mg/kg/injection, schedule: Q01DX005 (ip), vehicle: Klucel (hydroxypropylcellulose) (HPC)
[6] = dose: 240.0 mg/kg/injection, schedule: Q01DX005 (ip), vehicle: Klucel (hydroxypropylcellulose) (HPC)
[7] = dose: 50.0 mg/kg/injection, schedule: Q01DX009 (ip), vehicle: saline with Tween-80
[8] = dose: 200.0 mg/kg/injection, schedule: Q01DX009 (ip), vehicle: saline with Tween-80
[9] = dose: 60.0 mg/kg/injection, schedule: Q01DX005 (ip), vehicle: saline
[10] = dose: 240.0 mg/kg/injection, schedule: Q01DX005 (ip), vehicle: saline
[11] = dose: 100.0 mg/kg/injection, schedule: Q01DX001 (ip), vehicle: saline with Tween-80
[12] = dose: 200.0 mg/kg/injection, schedule: Q01DX001 (ip), vehicle: saline with Tween-80
[13] = dose: 12.5 mg/kg/injection, schedule: Q01DX005 (ip), vehicle: Klucel (hydroxypropylcellulose) (HPC)
[14] = dose: 25.0 mg/kg/injection, schedule: Q01DX005 (ip), vehicle: Klucel (hydroxypropylcellulose) (HPC)
[15] = dose: 50.0 mg/kg/injection, schedule: Q01DX005 (ip), vehicle: Klucel (hydroxypropylcellulose) (HPC)
[16] = dose: 50.0 mg/kg/injection, schedule: Q01DX009 (ip), vehicle: saline
[17] = dose: 100.0 mg/kg/injection, schedule: Q01DX009 (ip), vehicle: saline
[18] = dose: 200.0 mg/kg/injection, schedule: Q01DX009 (ip), vehicle: saline
[19] = dose: 100.0 mg/kg/injection, schedule: Q01DX005 (ip), vehicle: Klucel (hydroxypropylcellulose) (HPC)
[20] = dose: 200.0 mg/kg/injection, schedule: Q01DX005 (ip), vehicle: Klucel (hydroxypropylcellulose) (HPC)
[21] = dose: 12.5 mg/kg/injection, schedule: Q01DX005 (ip), vehicle: saline with Tween-80
[22] = dose: 25.0 mg/kg/injection, schedule: Q01DX005 (ip), vehicle: saline with Tween-80

With `O=C(NN1C(=O)CSC1c1ccc(F)cc1)c1ccncc1` (stereo not given) the T/C [1] was 99 % of control, the T/C [2] was 100 % of control and the T/C [3] was 92 % of control.
With `CCOC(=O)c1cnc2cc(C(F)(F)F)ccc2c1N=[N+]=[N-]` the T/C [1] was 99 % of control, the T/C [2] was 96 % of control and the T/C [3] was 96 % of control.
In the case of `CCOC(=O)C(C)/C(C)=N\NC(N)=S` (stereo not given), the T/C [4] is reported as 100 % of control, the T/C [5] is reported as 100 % of control and the T/C [6] is reported as 100 % of control.
With `OC1c2cc(Cl)cc(Cl)c2OC2(N3CCCC3)CCCCC12` (stereo not given) the T/C [7] was 100 % of control, the T/C (dose: 100.0 mg/kg/injection, schedule: Q01DX009 (ip), vehicle: saline with Tween-80) was 96 % of control and the T/C [8] was 102 % of control.
In the case of `Oc1cccc(/C=N/N2CCc3ccccc3C2)c1`, the T/C (dose: 50.0 mg/kg/injection, schedule: Q01DX001 (ip), vehicle: Klucel (hydroxypropylcellulose) (HPC)) is reported as 96 % of control, the T/C (dose: 100.0 mg/kg/injection, schedule: Q01DX001 (ip), vehicle: Klucel (hydroxypropylcellulose) (HPC)) is reported as 100 % of control and the T/C (dose: 200.0 mg/kg/injection, schedule: Q01DX001 (ip), vehicle: Klucel (hydroxypropylcellulose) (HPC)) is reported as 92 % of control.
`CC(O)C(O)C(O)C(O)C=O` (stereo not given) was tested, and the T/C [9] was 109 % of control and the T/C [10] was 100 % of control.
For `[Cl][Pt+2][Cl].[NH-]C1CCCC2CCC[N-]C12` (stereo not given), the T/C [7] was 154 % of control, the T/C [8] was 174 % of control and 184 % of control and the T/C (dose: 400.0 mg/kg/injection, schedule: Q01DX009 (ip), vehicle: saline with Tween-80) was 176 % of control.
In the case of `CC(C(=O)O)C(C)(C)c1ccccc1` (stereo not given), the T/C [11] is reported as 100 % of control, the T/C [12] is reported as 99 % of control and the T/C (dose: 400.0 mg/kg/injection, schedule: Q01DX001 (ip), vehicle: saline with Tween-80) is reported as 105 % of control.
With `C=C=COC` the T/C [9] was 93 % of control, the T/C (dose: 120.0 mg/kg/injection, schedule: Q01DX005 (ip), vehicle: saline) was 95 % of control and the T/C [10] was 95 % of control.
For `CN(C)CCCOc1cccc(NC2=C(Cl)C(=O)C(Nc3cccc(OCCCN(C)C)c3)=C(Cl)C2=O)c1`, the T/C (dose: 6.25 mg/kg/injection, schedule: Q01DX005 (ip), vehicle: Klucel (hydroxypropylcellulose) (HPC)) was 99 % of control, the T/C [13] was 100 % of control and the T/C [14] was 109 % of control. The T/C [15] was 100 % of control.
`C=CC1CCC[S+]1CC(=O)C(Cl)(Cl)Cl` (stereo not given) was tested, and the T/C [11] was 102 % of control and the T/C [12] was 109 % of control.
In the case of `C[N+](C)(C)CCOP(=O)([O-])OC1CCCC1`, the T/C [16] is reported as 103 % of control, the T/C [17] is reported as 100 % of control and the T/C [18] is reported as 105 % of control.
In the case of `CN(C)C1C[C@@H](O[Si](C)(C)C(C)(C)C)C=C1S(=O)(=O)c1ccccc1` (stereo not given in full), the T/C [4] is reported as 87 % of control.
For `NC(=O)C(Cc1ccccc1)NC(=O)C(CSCc1ccccc1)NC(=O)OCc1ccccc1` (stereo not given) (Cbz-Cys(Bn)-Phe-NH2; configuration not given here), the T/C [13] was 103 % of control, the T/C [14] was 102 % of control and the T/C [15] was 86 % of control and 91 % of control.
With `Nc1cccc(C(=O)NCCNC(=O)c2cccc(N)c2O)c1O` the T/C [15] was 98 % of control, the T/C [19] was 97 % of control and the T/C [20] was 95 % of control.
With `C/C(=N\NC(=S)N1CCCCCC1)c1nccs1` the T/C [21] was 98 % of control, the T/C [22] was 100 % of control and the T/C (dose: 50.0 mg/kg/injection, schedule: Q01DX005 (ip), vehicle: saline with Tween-80) was 102 % of control.
In the case of `Cc1ccc(-c2cs/c(=N\N=C3/CSC(=O)N3Cc3ccccc3)n2-c2ccc(C)cc2)cc1`, the T/C (dose: 100.0 mg/kg/injection, schedule: Q04DX002 (ip), vehicle: Klucel (hydroxypropylcellulose) (HPC)) is reported as 100 % of control, the T/C (dose: 200.0 mg/kg/injection, schedule: Q04DX002 (ip), vehicle: Klucel (hydroxypropylcellulose) (HPC)) is reported as 107 % of control and the T/C (dose: 400.0 mg/kg/injection, schedule: Q04DX002 (ip), vehicle: Klucel (hydroxypropylcellulose) (HPC)) is reported as 102 % of control.
`O=C1C(O)=C(O)C(=O)C(O)=C1O` was tested, and the T/C [16] was 108 % of control, the T/C [17] was 111 % of control and the T/C [18] was 117 % of control.
`O=C1CSC(=S)N1c1ccccc1C(F)(F)F` was tested, and the T/C (dose: 50.0 mg/kg/injection, schedule: Q01DX009 (ip), vehicle: suspension in saline) was 91 % of control, the T/C (dose: 100.0 mg/kg/injection, schedule: Q01DX009 (ip), vehicle: suspension in saline) was 96 % of control and the T/C (dose: 200.0 mg/kg/injection, schedule: Q01DX009 (ip), vehicle: suspension in saline) was 93 % of control.
For `CCOC(=O)C(=O)N(CCCNc1c2ccccc2nc2c(OC)cccc12)CCCNc1c2ccccc2nc2c(OC)cccc12`, the T/C (dose: 1.25 mg/kg/injection, schedule: Q01DX009 (ip), vehicle: water) was 120 % of control, the T/C (dose: 2.5 mg/kg/injection, schedule: Q01DX009 (ip), vehicle: water) was 120 % of control and the T/C (dose: 10.0 mg/kg/injection, schedule: Q01DX009 (ip), vehicle: water) was 161 % of control.
With `CCCCCCCCCCCCCCCC[N+](C)(CCO)Cc1cnc[nH]1` (stereo not given) the T/C (dose: 1.56 mg/kg/injection, schedule: Q01DX009 (ip), vehicle: saline) was 110 % of control, the T/C (dose: 3.12 mg/kg/injection, schedule: Q01DX009 (ip), vehicle: saline) was 111 % of control and the T/C (dose: 6.25 mg/kg/injection, schedule: Q01DX009 (ip), vehicle: saline) was 118 % of control.
In the case of `CCOC(=O)Nc1cc2c(c(N)n1)N=C(c1ccc(C)c(C)c1)CN2`, the T/C (dose: 3.12 mg/kg/injection, schedule: Q01DX005 (ip), vehicle: saline with Tween-80) is reported as 122 % of control and the T/C [21] is reported as 88 % of control.
With `CCC(=O)NN1C(=O)c2ccccc2C1=O` the T/C [1] was 103 % of control, the T/C [2] was 104 % of control and the T/C [3] was 99 % of control.
For `CCOC(=O)C1CSC(c2c(CO)cnc(C)c2O)N1` (stereo not given), the T/C [4] was 100 % of control, the T/C [5] was 99 % of control and the T/C [6] was 99 % of control.
For `OCc1c(-c2ccc(Cl)cc2)c(-c2ccc(F)cc2)c2n1CCC2`, the T/C [15] was 98 % of control, the T/C [19] was 100 % of control and the T/C [20] was 103 % of control.
With `CO/N=C1\CC(C)N2C(=O)C(C(C)C)NC(=O)C(NC(=O)c3c4nc5c(C(=O)NC6C(=O)NC(C(C)C)C(=O)N7C(C)CC(O)C7C(=O)N(C)CC(=O)N(C)C(C(C)C)C(=O)OC6C)ccc(C)c5oc-4c(C)c(=O)c3N)C(CO)OC(=O)C(C)N(C)C(=O)CN(C)C(=O)C12` (stereo not given) the T/C [21] was 161 % of control and the T/C [22] was 180 % of control.
In the case of `C=C1CC(C)(C)CN(Cc2ccc([N+](=O)[O-])cc2)C(C(=O)OC)=C1C(=O)OC`, the T/C [15] is reported as 87 % of control, the T/C [19] is reported as 95 % of control and the T/C [20] is reported as 94 % of control.
With `Cc1cc(=S)c2cc3c(cc2[nH]1)OCO3` the T/C [15] was 107 % of control, the T/C [19] was 101 % of control and the T/C [20] was 103 % of control.
For `C[N+](C)(C)CCC(=O)c1cccc([N+](=O)[O-])c1`, the T/C (dose: 12.5 mg/kg/injection, schedule: Q01DX009 (ip), vehicle: saline) was 101 % of control, the T/C (dose: 25.0 mg/kg/injection, schedule: Q01DX009 (ip), vehicle: saline) was 97 % of control and the T/C [16] was 108 % of control and 97 % of control.
With `CN(C)CCNC1c2ccccc2-c2ccccc21` the T/C (dose: 50.0 mg/kg/injection, schedule: Q01DX005 (ip), vehicle: saline) was 99 % of control, the T/C (dose: 100.0 mg/kg/injection, schedule: Q01DX005 (ip), vehicle: saline) was 98 % of control and the T/C (dose: 200.0 mg/kg/injection, schedule: Q01DX005 (ip), vehicle: saline) was 100 % of control.
In the case of `COC(=O)CC1C2(C)C3=C(C)C(c4ccoc4)CC3OC2C2OC(=O)C3(C)C=CC(=O)C1(C)C23` (stereo not given), the T/C (dose: 1.25 mg/kg/injection, schedule: Q01DX009 (ip), vehicle: Klucel (hydroxypropylcellulose) (HPC)) is reported as 91 % of control, the T/C (dose: 2.5 mg/kg/injection, schedule: Q01DX009 (ip), vehicle: Klucel (hydroxypropylcellulose) (HPC)) is reported as 105 % of control and the T/C (dose: 5.0 mg/kg/injection, schedule: Q01DX009 (ip), vehicle: Klucel (hydroxypropylcellulose) (HPC)) is reported as 86 % of control. The T/C (dose: 10.0 mg/kg/injection, schedule: Q01DX009 (ip), vehicle: Klucel (hydroxypropylcellulose) (HPC)) was 86 % of control and the T/C (dose: 20.0 mg/kg/injection, schedule: Q01DX009 (ip), vehicle: Klucel (hydroxypropylcellulose) (HPC)) was 102 % of control.
